The results in this text go back to publication PMC8112869, “Therapeutic inhibition of keratinocyte TRPV3 sensory channel by local anesthetic dyclonine” (eLife, 2021).

The target of this experiment is T1, TRPV3 (Mus musculus, UniProt Q8K424).
T1 construct: expressed in transfected cells; host or cells: HEK 293T
T1 sequence (Q8K424 1-791): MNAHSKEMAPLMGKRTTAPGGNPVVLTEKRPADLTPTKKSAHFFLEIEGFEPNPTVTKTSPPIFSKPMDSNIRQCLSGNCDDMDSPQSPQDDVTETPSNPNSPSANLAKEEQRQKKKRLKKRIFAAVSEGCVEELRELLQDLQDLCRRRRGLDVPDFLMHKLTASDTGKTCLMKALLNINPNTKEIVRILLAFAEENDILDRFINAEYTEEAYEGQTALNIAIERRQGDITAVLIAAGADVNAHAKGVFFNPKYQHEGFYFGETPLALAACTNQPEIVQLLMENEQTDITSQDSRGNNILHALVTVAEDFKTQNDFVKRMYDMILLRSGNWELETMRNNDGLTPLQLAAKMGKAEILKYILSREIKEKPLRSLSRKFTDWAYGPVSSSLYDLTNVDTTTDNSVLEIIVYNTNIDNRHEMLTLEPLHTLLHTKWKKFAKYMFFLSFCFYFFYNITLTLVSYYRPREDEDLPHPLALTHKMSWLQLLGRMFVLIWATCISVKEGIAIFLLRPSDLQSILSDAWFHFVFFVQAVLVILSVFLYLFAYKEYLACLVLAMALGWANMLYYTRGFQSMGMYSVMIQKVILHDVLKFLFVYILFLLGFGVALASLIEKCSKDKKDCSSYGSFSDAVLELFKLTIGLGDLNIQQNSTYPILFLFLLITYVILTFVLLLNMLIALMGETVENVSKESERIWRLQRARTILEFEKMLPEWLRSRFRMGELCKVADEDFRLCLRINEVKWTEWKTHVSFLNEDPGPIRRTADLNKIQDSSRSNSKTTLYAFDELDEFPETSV
Description: Whole-cell recording of carvacrol-evoked TRPV3 currents in HEK 293T cells. The format is cell-based. From the text:
Conventional whole-cell and excised patch-clamp recording methods were used. For the recombinant expressing system, green fluorescent EGFP was used as a surface marker for gene expression. Recording pipettes were pulled from borosilicate glass capillaries (World Precision Instruments) and fire-polished to a resistance between 2 and 4 MΩ when filled with internal solution containing (in mM) 140 CsCl, 2.0 MgCl2, 5 EGTA, and 10 HEPES, pH 7.4 (adjusted with CsOH). Bath solution contained (in mM): 140 NaCl, 5 KCl, 3 EGTA, and 10 HEPES, pH 7.4 adjusted with NaOH. For recordings in keratinocytes, the bath saline consisted of (in mM) 140 NaCl, 5 KCl, 2 MgCl2, 2 CaCl2, 10 glucoses, and 10 HEPES, pH 7.4 adjusted with NaOH, and the pipette solution contained (in mM) 140 CsCl, 5 EGTA, and 10 HEPES, pH 7.3 adjusted with CsOH. […] For a subset of recordings, currents were amplified using an Axopatch 200B amplifier (Molecular Devices, Sunnyvale, CA) and recorded through a BNC-2090/MIO acquisition system (National Instruments, Austin, TX) using QStudio developed by Dr. Feng Qin at State University of New York at Buffalo. […] As determined by the conductance tests, the solution around a patch under study was fully controlled by the application of a flow rate of 100 μl/min or greater. […]

The IC50 is the point on the concentration scale where inhibition reaches its midpoint. As to `CCCCOc1ccc(C(=O)CCN2CCCCC2)cc1` [dyclonine], the IC50 (500 μM carvacrol, after sensitization by 300 μM 2-APB, –60 mV, read-out: IC50 for inhibition of carvacrol-evoked TRPV3 currents) came out at 3.5 ± 0.34 µM. Besides, the “Hill coefficient nH” value (carvacrol-evoked) came out at 2.1 ± 0.41.
